# Test results from ChEMBL document CHEMBL6177939, “The role of silicon in drug discovery: a review” (RSC Med Chem, 2024).
# System: Staphylococcus epidermidis
# Experiment: Antibacterial activity against Staphylococcus epidermidis assessed as inhibition of bacterial growth incubated for 24 hrs by nutrient agar plate method
# Type: functional
# Conditions: not given
row,SMILES,MIC
1,CC[Si](CC)(CC)c1cccc(CN(Cc2ccccn2)Cc2ccccn2)c1O,1.2 µg/mL
2,CC(C)(C)[Si](c1ccccc1)(c1ccccc1)c1cccc(CN(Cc2ccccn2)Cc2ccccn2)c1O,1.2 µg/mL
3,CC(C)(C)[Si](C)(C)c1cccc(CN(Cc2ccccn2)Cc2ccccn2)c1O,1.2 µg/mL
4,CC(C)[Si](c1cccc(CN(Cc2ccccn2)Cc2ccccn2)c1O)(C(C)C)C(C)C,1.2 µg/mL
5,C[Si](C)(C)c1cccc(CN(Cc2ccccn2)Cc2ccccn2)c1O,1.2 µg/mL

# System: Staphylococcus aureus
# Experiment: Antibacterial activity against Staphylococcus aureus assessed as reduction in bacterial growth incubated for 12 hrs by broth micr-dilution method
# Type: functional
# Conditions: not given
row,SMILES,MIC50
1,O=c1c(I)cn(Cc2cn(CCC[Si-]345OCC[N+]3(CCO4)CCO5)nn2)c(=O)n1Cc1cn(CCC[Si-]234OCC[N+]2(CCO3)CCO4)nn1 (stereo not given),0.18 µg/mL
2,O=c1c(Cl)cn(Cc2cn(CCC[Si-]345OCC[N+]3(CCO4)CCO5)nn2)c(=O)n1Cc1cn(CCC[Si-]234OCC[N+]2(CCO3)CCO4)nn1 (stereo not given),0.18 µg/mL
3,Cc1cc(=O)n(Cc2cn(CCC[Si-]345OCC[N+]3(CCO4)CCO5)nn2)c(=O)n1Cc1cn(CCC[Si-]234OCC[N+]2(CCO3)CCO4)nn1 (stereo not given),0.18 µg/mL
4,O=c1c(F)cn(Cc2cn(CCC[Si-]345OCC[N+]3(CCO4)CCO5)nn2)c(=O)n1Cc1cn(CCC[Si-]234OCC[N+]2(CCO3)CCO4)nn1 (stereo not given),0.18 µg/mL

# System: Vibrio cholerae
# Experiment: Antibacterial activity against Vibrio cholerae assessed as inhibition of bacterial growth
# Type: functional
# Conditions: not given
row,SMILES,MIC50
1,O=c1c(I)cn(Cc2cn(CCC[Si-]345OCC[N+]3(CCO4)CCO5)nn2)c(=O)n1Cc1cn(CCC[Si-]234OCC[N+]2(CCO3)CCO4)nn1 (stereo not given),0.18 µg/mL
2,O=c1c(Cl)cn(Cc2cn(CCC[Si-]345OCC[N+]3(CCO4)CCO5)nn2)c(=O)n1Cc1cn(CCC[Si-]234OCC[N+]2(CCO3)CCO4)nn1 (stereo not given),0.18 µg/mL
3,Cc1cc(=O)n(Cc2cn(CCC[Si-]345OCC[N+]3(CCO4)CCO5)nn2)c(=O)n1Cc1cn(CCC[Si-]234OCC[N+]2(CCO3)CCO4)nn1 (stereo not given),0.18 µg/mL
4,O=c1c(F)cn(Cc2cn(CCC[Si-]345OCC[N+]3(CCO4)CCO5)nn2)c(=O)n1Cc1cn(CCC[Si-]234OCC[N+]2(CCO3)CCO4)nn1 (stereo not given),0.18 µg/mL

# System: MG-22A
# Experiment: Cytotoxicity against mouse MG-22A cells assessed as reduction in cell growth measured for 72 hrs by crystal violet staining based analysis
# Type: functional
# Conditions: not given
row,SMILES,IC50
1,CC[Si](CC)(CC)c1ccc([Si](C)(CCCN2CCCCC2)c2ccc([Si](CC)(CC)CC)o2)o1,3 µg/mL
2,CC[Si](CC)(CC)c1ccc([Si](C)(CCCN2CCN(C)CC2)c2ccc([Si](CC)(CC)CC)o2)o1,3 µg/mL
3,CN1CCN(CCC[Si](C)(c2ccc([Si](C)(C)C)o2)c2ccc([Si](C)(C)C)o2)CC1,3 µg/mL
4,C[Si](C)(C)c1ccc([Si](C)(CCCN2CCCCC2)c2ccc([Si](C)(C)C)o2)o1,3 µg/mL
5,CCN(CC)CCC[Si](C)(c1ccc([Si](C)(C)C)o1)c1ccc([Si](C)(C)C)o1,3 µg/mL
6,C[Si](CCCN1CCOCC1)(c1ccco1)c1ccco1,38 µg/mL
7,C[Si](C)(C)c1ccc([Si](C)(CCCN2CCOCC2)c2ccc([Si](C)(C)C)o2)o1,3 µg/mL
8,CCN(CC)CCC[Si](C)(c1ccc([Si](CC)(CC)CC)o1)c1ccc([Si](CC)(CC)CC)o1,3 µg/mL

# System: Rhizoctonia solani
# Experiment: Antifungal activity against Rhizoctonia solani assessed as inhibition of fungal growth at 1 microg/ml relative to control
# Type: functional
# Conditions: not given
row,SMILES,inhibition at 1 µg/mL
1,Cn1cc(C(=O)C(C#N)c2cccc([Si](C)(C)C)c2)c(C(F)F)n1 (stereo not given),91.2%
2,Cn1cc(C(=O)C(C#N)c2ccc([Si](C)(C)C)cc2F)c(C(F)F)n1 (stereo not given),91.2%
3,Cn1cc(C(=O)C(C#N)c2ccc([Si](C)(C)C)cc2)c(C(F)F)n1 (stereo not given),91.2%

# Molecular target: Hydroxycarboxylic acid receptor 2 (Rattus norvegicus, UniProt Q80Z39)
# Experiment: Agonist activity at rat GPR109A transfected in T-REX-CHO cells by cAMP assay
# Type: cell-based
# Conditions: not given
# Hydroxycarboxylic acid receptor 2, sequence (Q80Z39 whole entry): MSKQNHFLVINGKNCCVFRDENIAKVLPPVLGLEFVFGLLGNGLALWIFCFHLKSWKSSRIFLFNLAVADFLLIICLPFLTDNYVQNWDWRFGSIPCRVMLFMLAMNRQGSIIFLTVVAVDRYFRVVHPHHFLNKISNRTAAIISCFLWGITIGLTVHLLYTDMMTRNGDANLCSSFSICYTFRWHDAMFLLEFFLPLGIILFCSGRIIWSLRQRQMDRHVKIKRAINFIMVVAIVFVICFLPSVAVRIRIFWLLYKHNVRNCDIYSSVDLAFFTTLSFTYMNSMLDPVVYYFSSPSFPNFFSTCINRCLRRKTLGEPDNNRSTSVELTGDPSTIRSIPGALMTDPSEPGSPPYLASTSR
row,SMILES,EC50
1,CCOc1cc(Cl)c(C(=O)NC(=O)Nc2nc3c(s2)CCCC3)cc1-n1cccn1,250 nM
2,CCOc1cc(Cl)c(C(=O)NC(=O)Nc2nc3c(s2)C[Si](c2ccccc2)(c2ccc(OC)cc2)CC3)cc1-n1cccn1 (stereo not given),470 nM
3,CCOc1cc(Cl)c(C(=O)NC(=O)Nc2nc3c(s2)C[Si](C)(c2ccc(OC)cc2)CC3)cc1-n1cccn1 (stereo not given),470 nM
4,CCC[Si]1(CCC)CCc2nc(NC(=O)NC(=O)c3cc(N4CCOCC4)c(OCC)cc3Cl)sc2C1,1200 nM
5,CCOc1cc(Cl)c(C(=O)NC(=O)Nc2nc3c(s2)C[Si](C)(c2c(OC)cccc2OC)CC3)cc1-n1cccn1 (stereo not given),470 nM
6,CCC[Si]1(c2ccc(OC)cc2)CCc2nc(NC(=O)NC(=O)c3cc(-n4cccn4)c(OCC)cc3Cl)sc2C1 (stereo not given),470 nM
7,CCOc1cc(Cl)c(C(=O)NC(=O)Nc2nc3c(s2)C[Si](c2ccccc2)(c2c(OC)cccc2OC)CC3)cc1-n1cccn1 (stereo not given),470 nM
8,CCC[Si]1(c2c(OC)cccc2OC)CCc2nc(NC(=O)NC(=O)c3cc(-n4cccn4)c(OCC)cc3Cl)sc2C1 (stereo not given),470 nM
9,CCOc1cc(Cl)c(C(=O)NC(=O)Nc2nc3c(s2)C[Si](C)(C)CC3)cc1N1CCOCC1,1200 nM
10,CCOc1cc(Cl)c(C(=O)NC(=O)Nc2nc3c(s2)C[Si](c2ccccc2)(c2ccccc2)CC3)cc1N1CCOCC1,1200 nM

# System: Bacillus subtilis
# Experiment: Antibacterial activity against Bacillus subtilis assessed as reduction in bacterial growth incubated for 12 hrs by broth micr-dilution method
# Type: functional
# Conditions: not given
row,SMILES,MIC50
1,O=c1c(I)cn(Cc2cn(CCC[Si-]345OCC[N+]3(CCO4)CCO5)nn2)c(=O)n1Cc1cn(CCC[Si-]234OCC[N+]2(CCO3)CCO4)nn1 (stereo not given),0.18 µg/mL
2,O=c1c(Cl)cn(Cc2cn(CCC[Si-]345OCC[N+]3(CCO4)CCO5)nn2)c(=O)n1Cc1cn(CCC[Si-]234OCC[N+]2(CCO3)CCO4)nn1 (stereo not given),0.18 µg/mL
3,Cc1cc(=O)n(Cc2cn(CCC[Si-]345OCC[N+]3(CCO4)CCO5)nn2)c(=O)n1Cc1cn(CCC[Si-]234OCC[N+]2(CCO3)CCO4)nn1 (stereo not given),0.18 µg/mL
4,O=c1c(F)cn(Cc2cn(CCC[Si-]345OCC[N+]3(CCO4)CCO5)nn2)c(=O)n1Cc1cn(CCC[Si-]234OCC[N+]2(CCO3)CCO4)nn1 (stereo not given),0.18 µg/mL

# System: HT-1080
# Experiment: Cytotoxicity against human HT-1080 cells assessed as reduction in cell growth measured for 72 hrs by crystal violet staining based analysis
# Type: functional
# Conditions: HT-1080, 72 h
row,SMILES,IC50
1,CC[Si](CC)(CC)c1ccc([Si](C)(CCCN2CCCCC2)c2ccc([Si](CC)(CC)CC)o2)o1,3 µg/mL
2,CC[Si](CC)(CC)c1ccc([Si](C)(CCCN2CCN(C)CC2)c2ccc([Si](CC)(CC)CC)o2)o1,3 µg/mL
3,CN1CCN(CCC[Si](C)(c2ccc([Si](C)(C)C)o2)c2ccc([Si](C)(C)C)o2)CC1,3 µg/mL
4,C[Si](C)(C)c1ccc([Si](C)(CCCN2CCCCC2)c2ccc([Si](C)(C)C)o2)o1,3 µg/mL
5,CCN(CC)CCC[Si](C)(c1ccc([Si](C)(C)C)o1)c1ccc([Si](C)(C)C)o1,3 µg/mL
6,C[Si](CCCN1CCOCC1)(c1ccco1)c1ccco1,100 µg/mL
7,C[Si](C)(C)c1ccc([Si](C)(CCCN2CCOCC2)c2ccc([Si](C)(C)C)o2)o1,3 µg/mL
8,CCN(CC)CCC[Si](C)(c1ccc([Si](CC)(CC)CC)o1)c1ccc([Si](CC)(CC)CC)o1,3 µg/mL

# System: not listed separately
# Experiment: Agonist activity at rat GPR81 transfected in T-REX-CHO cells by cAMP assay
# Type: cell-based
# Conditions: not given
row,SMILES,EC50
1,CCOc1cc(Cl)c(C(=O)NC(=O)Nc2nc3c(s2)CCCC3)cc1-n1cccn1,18 nM
2,CCOc1cc(Cl)c(C(=O)NC(=O)Nc2nc3c(s2)C[Si](c2ccccc2)(c2ccc(OC)cc2)CC3)cc1-n1cccn1 (stereo not given),210 nM
3,CCOc1cc(Cl)c(C(=O)NC(=O)Nc2nc3c(s2)C[Si](C)(c2ccc(OC)cc2)CC3)cc1-n1cccn1 (stereo not given),210 nM
4,CCC[Si]1(CCC)CCc2nc(NC(=O)NC(=O)c3cc(N4CCOCC4)c(OCC)cc3Cl)sc2C1,1000 nM
5,CCOc1cc(Cl)c(C(=O)NC(=O)Nc2nc3c(s2)C[Si](C)(c2c(OC)cccc2OC)CC3)cc1-n1cccn1 (stereo not given),210 nM
6,CCC[Si]1(c2ccc(OC)cc2)CCc2nc(NC(=O)NC(=O)c3cc(-n4cccn4)c(OCC)cc3Cl)sc2C1 (stereo not given),210 nM
7,CCOc1cc(Cl)c(C(=O)NC(=O)Nc2nc3c(s2)C[Si](c2ccccc2)(c2c(OC)cccc2OC)CC3)cc1-n1cccn1 (stereo not given),210 nM
8,CCC[Si]1(c2c(OC)cccc2OC)CCc2nc(NC(=O)NC(=O)c3cc(-n4cccn4)c(OCC)cc3Cl)sc2C1 (stereo not given),210 nM
9,CCOc1cc(Cl)c(C(=O)NC(=O)Nc2nc3c(s2)C[Si](C)(C)CC3)cc1N1CCOCC1,1000 nM
10,CCOc1cc(Cl)c(C(=O)NC(=O)Nc2nc3c(s2)C[Si](c2ccccc2)(c2ccccc2)CC3)cc1N1CCOCC1,1000 nM

# System: Escherichia coli
# Experiment: Antibacterial activity against Escherichia coli assessed as reduction in bacterial growth incubated for 12 hrs by broth micr-dilution method
# Type: functional
# Conditions: not given
row,SMILES,MIC50
1,O=c1c(I)cn(Cc2cn(CCC[Si-]345OCC[N+]3(CCO4)CCO5)nn2)c(=O)n1Cc1cn(CCC[Si-]234OCC[N+]2(CCO3)CCO4)nn1 (stereo not given),0.18 µg/mL
2,O=c1c(Cl)cn(Cc2cn(CCC[Si-]345OCC[N+]3(CCO4)CCO5)nn2)c(=O)n1Cc1cn(CCC[Si-]234OCC[N+]2(CCO3)CCO4)nn1 (stereo not given),0.18 µg/mL
3,Cc1cc(=O)n(Cc2cn(CCC[Si-]345OCC[N+]3(CCO4)CCO5)nn2)c(=O)n1Cc1cn(CCC[Si-]234OCC[N+]2(CCO3)CCO4)nn1 (stereo not given),0.18 µg/mL
4,O=c1c(F)cn(Cc2cn(CCC[Si-]345OCC[N+]3(CCO4)CCO5)nn2)c(=O)n1Cc1cn(CCC[Si-]234OCC[N+]2(CCO3)CCO4)nn1 (stereo not given),0.18 µg/mL
